Consider 3 compounds from publication PMC11440508, “Dually Labeled Neurotensin NTS1R Ligands for Probing Radiochemical and Fluorescence-Based Binding Assays” (Journal of Medicinal Chemistry, 2024).

In test [1] the target is T1, NTS1R (Homo sapiens, UniProt P30989). In words: Radiochemical association and dissociation kinetics, suspended CHO-hNTS1R cells. Type of test: binding. How it is done: Binding of both ligands, [^3H]13 and [^3H]18, was studied at adherent and suspended intact CHO-hNTS1R cells, and binding of [^3H]13 was additionally studied using CHO-hNTS1R cell membrane preparations (saturation and competition binding, kinetic studies). Furthermore, saturation binding experiments were performed with both ligands at intact adherent HT-29 cells. All experiments were performed in triplicate except for dissociation experiments performed with suspended cells in 50 mL flacon tubes (performed in duplicate). To reduce radioligand consumption in the aforementioned experiments, [^3H]13 and [^3H]18 were 1:1 diluted with 13 and 18, respectively (for the purpose of easier reading these mixtures are denoted "[^3H]13" and "[^3H]18"in the following). All samples were incubated at 23 ± 1 °C in the dark under gentle shaking (incubation times are outlined below). DPBS1 served as binding buffer throughout. In the case of experiments performed with cell suspensions, CHO-hNTS1R cells were seeded in T75 culture flasks 3–4 days prior to the experiment. On the day of the experiment, cells were detached by trypsinization, suspended in DPBS1 and centrifuged at 200g at rt for 5 min. Cells were resuspended in binding buffer and the cell density was adjusted to 1.5 × 10^5 to 2.5 × 10^5 cells/mL. Samples involving suspended cells or membrane preparations were prepared and incubated in 96-well polypropylene plates (Brand 701330, Wertheim, Germany) or in 50 mL polypropylene falcon tubes (Sarstedt), and the same filtration procedure for separating free radioligand from cell- or membrane bound radioligand was applied for all kind of binding experiments: after completed incubation, cells or cell membranes were collected on GF/C filter mats (0.26 mm; Whatman, Maidstone, U.K.) (pretreated with 0.3% polyethylenimine for 30 min) using an in-house manufactured harvester for 96-well plates (precision engineering workshop of the University of Regensburg, Regensburg, Germany), and the wells of the plate and the cells on the filter mat were immediately washed twice with ice-cold PBS (2 × 200 μL) (note: when samples were incubated in falcon tubes, 200-μL aliquots were transferred to the wells of a 96-well polypropylene plate after the incubation period, immediately followed by the filtration procedure). Filter pieces for each well were punched out and transferred into 1450–401 96-well sample plates (PerkinElmer, Rodgau, Germany), followed by the addition of Rotiscint Routine (Carl Roth, Karlsruhe, Germany) (200 μL). The plates were sealed with transparent sealing tape (Greiner EASYseal, part no. 676001, Greiner Bio-One) and shaken in the dark overnight before measurement of the radioactivity (dpm) using a MicroBeta2 plate counter equipped with six pairs of photomultiplier tubes (PerkinElmer).
T1 sequence (P30989 whole entry): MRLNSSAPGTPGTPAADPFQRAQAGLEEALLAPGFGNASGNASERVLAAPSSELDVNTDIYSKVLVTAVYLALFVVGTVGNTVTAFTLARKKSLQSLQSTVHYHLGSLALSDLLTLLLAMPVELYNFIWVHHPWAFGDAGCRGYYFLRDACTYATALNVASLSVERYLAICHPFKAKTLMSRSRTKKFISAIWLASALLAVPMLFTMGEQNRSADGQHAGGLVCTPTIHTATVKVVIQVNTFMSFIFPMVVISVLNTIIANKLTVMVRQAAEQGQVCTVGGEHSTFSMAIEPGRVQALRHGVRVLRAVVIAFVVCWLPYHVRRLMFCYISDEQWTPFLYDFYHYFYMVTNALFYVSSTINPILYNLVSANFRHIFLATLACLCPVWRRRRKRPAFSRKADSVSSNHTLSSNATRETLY
To start the association, 20 μL of an 18 nM solution of [^3H]13 or 20 μL of a 12 nM solution of [^3H]18 in DPBS1 (final concentrations: 1.8 or 1.2 nM) were added. The samples of the different time points were prepared in reversed order (longest incubation time first, shortest incubation time last) so that the cells of all samples could be harvested simultaneously. The time span for sample incubation was 1–180 min. Adherent cells: 96-well white/clear bottom plates with adherent cells were prefilled with DPBS1 (160 μL) after initial washing of the cells. […] To start the association, 20 μL of a 13 nM solution of [^3H]13 or 20 μL of an 11 nM solution of [^3H]18 in DPBS1 (final concentrations: 1.3 or 1.1 nM) were added. When the incubation time was reached, all liquid was removed by suction followed by washing (2 × ice-cold PBS) and cell lysis. The samples of the different time points were prepared in reversed order (longest incubation time first, shortest incubation time last) so that the cells of all samples could be washed and lysed simultaneously. […]

Test [2] addresses T1, NTS1R. Briefly: Radiochemical saturation binding, adherent HT-29 cells. Conditions: 23 °C. Here is the method:
Binding of both ligands, [^3H]13 and [^3H]18, was studied at adherent and suspended intact CHO-hNTS1R cells, and binding of [^3H]13 was additionally studied using CHO-hNTS1R cell membrane preparations (saturation and competition binding, kinetic studies). Furthermore, saturation binding experiments were performed with both ligands at intact adherent HT-29 cells. All experiments were performed in triplicate except for dissociation experiments performed with suspended cells in 50 mL flacon tubes (performed in duplicate). To reduce radioligand consumption in the aforementioned experiments, [^3H]13 and [^3H]18 were 1:1 diluted with 13 and 18, respectively (for the purpose of easier reading these mixtures are denoted "[^3H]13" and "[^3H]18"in the following). All samples were incubated at 23 ± 1 °C in the dark under gentle shaking (incubation times are outlined below). DPBS1 served as binding buffer throughout. In the case of experiments performed with cell suspensions, CHO-hNTS1R cells were seeded in T75 culture flasks 3–4 days prior to the experiment. […] The plates were sealed with transparent sealing tape (Greiner EASYseal, part no. 676001, Greiner Bio-One) and shaken in the dark overnight before measurement of the radioactivity (dpm) using a MicroBeta2 plate counter equipped with six pairs of photomultiplier tubes (PerkinElmer). […]

Test [3] addresses T1, NTS1R. Briefly: Radioligand competition binding with [^3H]UR-MK300 at intact HT-29 colon carcinoma cells. Conditions: [^3H]UR-MK300, intact HT-29 cells, 23 °C; read-out: NTS1R pKi ± SEM (converted). How it is done: NTS1R binding affinities were determined in a reported competition binding assay[13] using intact hNTS1R-expressing HT-29 colon carcinoma cells and [^3H]UR-MK300 (structure see Figure 1A) as radioligand (competition binding curves shown in Figure S4, Supporting Information).
NTS1R radioligand competition binding experiments with [^3H]UR-MK300 (molar activity: 2.41 TBq/mmol) and the peptides 6–9, 10a, 10b, 13–16, and 18 were performed with intact hNTS1R-expressing human HT-29 colon carcinoma cells at 23 ± 1 °C using a previously reported protocol.[13] […] Cells were seeded one day before the assay, yielding a confluency of at least 90% on the day of the experiment. Total binding data (including total binding in the absence of competitor) were plotted as dpm values against log(concentration competitor) and analyzed by a four-parameter logistic equation (log(inhibitor) vs response–variable slope, GraphPad Prism 5, GraphPad Software, San Diego, CA) to obtain pIC50 values. Individual pIC50 values were converted to pKi values according to the Cheng–Prusoff equation[60] (logarithmic form). To plot average data from individual binding experiments, data were normalized (100% = “top” of the four-parameter logistic fit, 0% = unspecifically bound radioligand).
In general terms: In a radioligand displacement assay an active substance lowers the binding of a labelled ligand.

Test [4] concerns the target T1, NTS1R. In words: Radiochemical competition binding, adherent CHO-hNTS1R cells. Conditions: labeled probe [^3H]13 (1.3 nM), 90 min, 23 °C, read-out: RC adherent cells: pKi ± SEM (converted).
Test [5] concerns the target T1, NTS1R. Briefly: Radiochemical competition binding, suspended CHO-hNTS1R cells. Conditions: labeled probe [^3H]13 (1.8 nM), 90 min, 23 °C, read-out: RC cell suspension: pKi ± SEM (converted).

For the compound `CCC(=O)NCCCCNC(=O)NC(=N)NCCC[C@H](NC(=O)[C@@H]1CCCN1C(=O)[C@@H](NC(=O)CCc1cn(CCCNC(=O)c2ccc(-c3c4ccc(=[N+](C)C)cc-4oc4cc(N(C)C)ccc34)c(C(=O)[O-])c2)nn1)C1CCNCC1)C(=O)N[C@@H](CCCNC(=N)N)C(=O)N1CCC[C@H]1C(=O)N[C@@H](Cc1ccc(O)cc1)C(=O)N[C@H](C(=O)N[C@@H](CC(C)C)C(=O)O)[C@@H](C)CC` [[^3H]13], the koff (in general, the first-order rate constant of dissociation) at NTS1R [1] (suspended CHO-hNTS1R cells (50 mL falcon tubes), 23 °C, read-out: koff [min^–1] (converted)) was 0.0006 s⁻¹. For the same compound, at NTS1R [1] (suspended CHO-hNTS1R cells, biphasic exponential fit), the “kobs(slow) [min^–1]” value is 0.051 ± 0.001 ^b min^–1. Further, the kon (commonly the rate constant with which the complex forms) at NTS1R [1] (suspended CHO-hNTS1R cells, calculated from koff, kobs(fast) and ligand concentration, read-out: kon(fast) [min^–1 nM^–1] (converted)) was 1.35e+07 M⁻¹ s⁻¹. Besides, the equilibrium dissociation constant (Kd) (usually the constant that tells how readily two partners part at equilibrium) on NTS1R [1] (suspended CHO-hNTS1R cells, koff/kon(fast), read-out: Kd(kin)) worked out at 0.044 ± 0.02 nM; on NTS1R [2] it was 1.2 ± 0.1 nM. Further, the “kobs(fast) [min^–1]” value at NTS1R [1] (suspended CHO-hNTS1R cells, monophasic fit of initial association phase, 1.8 nM [^3H]13 or […] [^3H]18) is 1.5 ± 0.3 ^a min^–1. Besides, the “Proportion of fast kinetic component (association)” value at NTS1R [1] (suspended cells) was 21%. The “Proportion of slow kinetic component (association)” value at NTS1R [1] (suspended cells) is given as 79%.
Regarding `CCC(=O)NCCCCNC(=O)NC(=N)NCCC[C@H](NC(=O)[C@@H]1CCCN1C(=O)[C@@H](NC(=O)CCc1cn(CCCNC(=O)CCC#Cc2ccc3c(c2)C(C)(C)C2=C4C=C5C6=[N+](CCC5OC4CCN23)c2ccc(S(=O)(=O)[O-])cc2C6(C)C)nn1)C1CCNCC1)C(=O)N[C@@H](CCCNC(=N)N)C(=O)N1CCC[C@H]1C(=O)N[C@H](C(=O)N[C@H](C(=O)N[C@@H](CC(C)C)C(=O)O)[C@@H](C)CC)C(C)(C)c1ccc(O)cc1` (stereo partly drawn) [Compound 18, N^α-(3-(N-(1-(8-Sulfonato-5,5,27,27-tetramethyl-16-oxa-20-aza-12-azoniaheptacyclo[15.11.0.03,15.04,12.06,11.020,28.021,26]octacosa-1(28),2,4(12),6(11),7,9,21(26),22,24-nonaen-24-yl)-5-oxopentyn-5-yl)-1-aminoprop-3-yl-1H-1,2,3-triazol-4-yl)propanoyl)-2-(piperidin-4-yl)-Gly-Pro-N^ω-[(4-(N-propanoyl)aminobutyl)aminocarbonyl]Arg-Arg-Pro-β,β-dimethyl-L-Tyr-Ile-Leu Tris(hydrotrifluoroacetate)], the Ki on NTS1R [3] is 4.07 nM.
With `CCC(=O)NCCCCNC(=O)N=C(N)NCCC[C@H](NC(=O)[C@@H]1CCCN1C(=O)[C@@H](NC(=O)CCc1cn(CCCNC(=O)c2ccc(-c3c4ccc(=[N+](C)C)cc-4oc4cc(N(C)C)ccc34)c(C(=O)[O-])c2)nn1)C1CCNCC1)C(=O)N[C@@H](CCCNC(=N)N)C(=O)N1CCC[C@H]1C(=O)N[C@@H](Cc1ccc(O)cc1)C(=O)N[C@H](C(=O)N[C@@H](CC(C)C)C(=O)O)[C@@H](C)CC` [Compound 13, N^α-(3-(1-N-((1-Carboxylato-2-(6-(dimethylamino)-3-(dimethyliminio)-3H-xanthen-9-yl)phen-5-yl)1-oxomethyl)aminoprop-3-yl-1H-1,2,3-triazol-4-yl)propanoyl)-2-(piperidin-4-yl)-Gly-Pro-N^ω-[(4-(N-propanoyl)aminobutyl)aminocarbonyl]Arg-Arg-Pro-Tyr-Ile-Leu Tris(hydrotrifluoroacetate)], the Ki at NTS1R [4] is 1.51 nM; at NTS1R [5], 4.68 nM.
